Read-outs that look alike come from different tables or passages of the source.
Experiments:
[1] = test system: parental HEK293 cell line expressing the GloSensor 22F cAMP sensor and lacking Sm.5HTRL; experiment: counter-screen of agonist hits: basal cAMP luminescence in parental reporter line; type: cell-based
[2] = biological target: T1, Sm.5HTRL (Schistosoma mansoni, UniProt A0A173FEI8)
[3] = biological target: Sh.5HTR (Schistosoma haematobium, UniProt A0A922S615); type: cell-based; settings: receptor transiently transfected into stable HEK293 cAMP reporter line; read-out: EC50 of cAMP luminescence response
[4] = biological target: Sj.5HTR (Schistosoma japonicum, UniProt A0A346LTY2); experiment: cell-based
[5] = test system: adult S. mansoni parasites; experiment: adult worm movement assay ex vivo; set-up: species or system Schistosoma mansoni; settings: for EC50 / IC50: Schistosoma mansoni, ± 95% confidence interval; for EC50: read-out: EC50 for stimulation of adult schistosome movement; for IC50: read-out: IC50 for inhibition of 5-HT evoked movement, 5-HT 200 µM
[6] = test system: immature S. mansoni; experiment: movement of immature worms harvested 4 weeks post infection, ex vivo; set-up: species or system Schistosoma mansoni; settings: male worms 4 weeks post infection
From the text: Figure 6. […] Figure 6—figure supplement 1. […] Scale = 50 µm. [drawing 7]

[7] = biological target: T1, Sm.5HTRL; experiment: cell-based; settings: for fold induction at 10 µM: HEK293, read-out: Sm.5HTRL agonism (fold change luminescence)
[8] = test system: adult S. mansoni male and female pairs; experiment: egg laying assay of worm pairs cultured ex vivo; settings: 100 µM, five days
[9] = test system: liver signaling pathways; experiment: Ingenuity Pathway Analysis of transcripts differentially expressed in drug treated livers relative to control infections; type: in vivo, mouse
[10] = test system: immature S. mansoni (infection in mice); experiment: curative efficacy against immature infection in mice (dosing weeks 3-4 post infection); settings: dosing 3–4 weeks post infection, worm burden at 7 weeks; ERG 60 mg/kg, PZQ 50 mg/kg
[11] = test system: S. mansoni (mature infection in Swiss Webster mice); experiment: curative efficacy against mature infection in mice (survival, worm burden, egg counts, organ weights)
[12] = test system: S. mansoni (mature infection in Swiss Webster mice); experiment: hepatic shift assay in infected mice; settings: intraperitoneal, sacrificed three hours later; dose not given
[13] = agonist hit counter screen, cells lacking Sm.5HTRL
[14] = primary screen, compound 10 µM then 5-HT 1 µM, 384 well, single replicate

T1 sequence (A0A173FEI8 1-547): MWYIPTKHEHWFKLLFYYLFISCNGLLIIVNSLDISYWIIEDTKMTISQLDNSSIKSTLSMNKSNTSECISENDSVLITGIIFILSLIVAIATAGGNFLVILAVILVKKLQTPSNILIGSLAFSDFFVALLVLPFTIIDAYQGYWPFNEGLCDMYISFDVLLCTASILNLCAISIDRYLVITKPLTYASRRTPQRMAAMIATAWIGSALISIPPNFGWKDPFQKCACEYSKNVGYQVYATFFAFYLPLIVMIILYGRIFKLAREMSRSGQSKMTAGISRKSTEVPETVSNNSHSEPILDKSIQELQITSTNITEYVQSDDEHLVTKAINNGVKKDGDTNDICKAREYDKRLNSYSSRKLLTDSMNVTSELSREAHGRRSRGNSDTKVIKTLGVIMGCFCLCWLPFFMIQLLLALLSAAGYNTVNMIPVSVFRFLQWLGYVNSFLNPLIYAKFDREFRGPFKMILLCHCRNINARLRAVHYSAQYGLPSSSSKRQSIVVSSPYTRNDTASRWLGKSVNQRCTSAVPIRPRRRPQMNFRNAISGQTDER
Sj.5HTR, sequence (A0A346LTY2 entry or part of it): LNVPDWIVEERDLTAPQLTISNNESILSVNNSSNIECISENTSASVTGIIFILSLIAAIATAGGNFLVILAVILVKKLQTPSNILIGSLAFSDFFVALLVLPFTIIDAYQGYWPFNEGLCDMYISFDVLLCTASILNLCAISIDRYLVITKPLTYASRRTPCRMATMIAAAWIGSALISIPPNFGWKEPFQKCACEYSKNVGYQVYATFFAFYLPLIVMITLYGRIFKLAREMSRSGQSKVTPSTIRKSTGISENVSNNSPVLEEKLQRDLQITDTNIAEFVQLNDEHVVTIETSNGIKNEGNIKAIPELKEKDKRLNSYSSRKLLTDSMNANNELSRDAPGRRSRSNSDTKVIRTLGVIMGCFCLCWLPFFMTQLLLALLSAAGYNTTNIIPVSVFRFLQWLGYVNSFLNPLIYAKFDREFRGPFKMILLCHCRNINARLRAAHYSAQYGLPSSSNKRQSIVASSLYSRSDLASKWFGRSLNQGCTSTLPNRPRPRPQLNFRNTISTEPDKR

## CN1C[C@H](C(=O)N[C@]2(C)O[C@@]3(O)[C@@H]4CCCN4C(=O)[C@H](Cc4ccccc4)N3C2=O)C[C@@H]2c3cccc4[nH]cc(c34)C[C@H]21.CS(=O)(=O)O [ST056346]
[1]; [13]
  (-)Sm.5HTRL fold change: 1.4 fold change
[2]
  (+) Sm.5HTRL fold change: 94.3413 fold change

## C=C[C@]1(C)C=C2CC[C@@H]3[C@](C)(CCC[C@@]3(C)C(=O)O)[C@H]2CC1 [compound 6435]
[1]; [13]
  (-)Sm.5HTRL fold change: 0.9901 fold change
[2]; agonist hit validation
  (+) Sm.5HTRL fold change: 200.129 fold change

## Nc1nc(Cl)nc2c1ncn2C1OC(CO)C(O)C1O (centres unmarked) [ST088476]
[1]; [13]
  (-)Sm.5HTRL fold change: 3.8 fold change
[2]; agonist hit validation
  (+) Sm.5HTRL fold change: 23.2211 fold change

## COc1cc2c(c(OC)c1OC)-c1ccc(OC)c(=O)cc1[C@@H](NC(C)=O)CC2 [compound 757]
[2]
  Sm.5HTRL agonism (fold change luminescence): 1.502 fold change luminescence
  Sm.5HTRL antagonism (% of control 5-HT response): 1.228 % of control 5-HT response

## NCCc1c[nH]c2ccc(O)cc12 [5-HT, serotonin]
[3]
  EC50: 3.6 ± 0.3 nM
[4]
  EC50: 3 ± 0.3 nM
[5]; ex vivo
  EC50: 51600 ± 3000 nM
[5]; ex vivo, 5-HT at 200 µM
  effect on adult worm movement: increased worm movement
[6]
  effect on movement of juvenile worms: stimulated movement of juvenile worms
[7]
  EC50: 76 ± 1 nM
[7]; HEK293, read-out: elevation in luminescence values (fold increase)
  fold induction at 1 µM: 70 to 110
[8]
  reduction of egg laying ex vivo: 82.4 ± 2.2 % reduction

## O=C(C1CCCCC1)N1CC(=O)N2CCc3ccccc3C2C1 (centres unmarked) [PZQ, praziquantel]
[9]
  effect on gene products associated with HSC activation: little to no effect
[10]
  effect on immature infection: lack of effect
[11]; PZQ 50 mg/kg for one week from 42 days p.i.
  lethality through 15 weeks: no observed lethality
[11]; ergotamine 60 mg/kg twice daily or PZQ 50 mg/kg, 42–49 days p.i.
  reduction in intestinal egg burden: 99.9 ± 0.1%
[11]; one week treatment starting at 42 days p.i.
  effect on hepatosplenomegaly: did not prevent spleen and liver enlargement

## NCCc1c[nH]c2cccc(OC(=O)c3ccc(C(=O)O)cc3)c12 [ST070282]
[1]; [13]
  (-)Sm.5HTRL fold change: 1.366 fold change
[2]; hek293 cells
  (+) Sm.5HTRL fold change: 12.6864 fold change

## CNCC(O)c1ccc(O)cc1 (centres unmarked) [ST095769]
[1]; [13]
  (-)Sm.5HTRL fold change: 2.535 fold change
[2]; agonist hit validation
  (+) Sm.5HTRL fold change: 11.737 fold change

## CNC[C@@H](O)c1ccc(O)c(O)c1 [compound 62786]
[1]; [13]
  (-)Sm.5HTRL fold change: 88.8519 fold change
[2]; agonist hit validation
  (+) Sm.5HTRL fold change: 230.23 fold change

## C=C[C@@]1(C)CC(=O)[C@@]2(O)[C@](C)(O1)[C@@H](OC(C)=O)[C@@H](O)C1C(C)(C)CC[C@H](O)[C@@]12C (some centres unmarked) [ST095786]
[1]; [13]
  (-)Sm.5HTRL fold change: 121.8 fold change
[2]; agonist hit validation
  (+) Sm.5HTRL fold change: 95.4625 fold change

## CCN(CC)C(=O)[C@@H]1C=C2c3cccc4[nH]c(Br)c(c34)C[C@H]2N(C)C1 [BOL-148, 2-Bromo-LSD]
[5]; ex vivo
  IC50: 28.8 ± 23.1 nM
[5]; inhibition of 5-HT evoked movement
  potency relative to bromocriptine: ~ 10 fold
[2]
  type of activity at schistosome 5-HTRs: antagonists
[7]
  IC50: 100 ± 20 nM
[12]
  percentage of worms in the liver: 5.2 ± 2.3%

## CCN(CC)C(=O)[C@@H]1C=C2c3cccc4[nH]cc(c34)C[C@H]2N(C)C1 [LSD, reference compound]
[5]; ex vivo
  EC50: 1400 ± 500 nM
[2]
  type of activity at schistosome 5-HTRs: partial agonist

## COc1cc(C(=O)NCCOc2ccccc2C)cc(OC)c1OC [ST005872]
[1]; [13]
  (-)Sm.5HTRL fold change: 0.7305 fold change
[2]; agonist hit validation
  (+) Sm.5HTRL fold change: 10.4008 fold change

## C[C@@H](CO)NC(=O)[C@@H]1C=C2c3cccc4[nH]cc(c34)C[C@H]2N(C)C1 [ST057158]
[1]; [13]
  (-)Sm.5HTRL fold change: 1.1 fold change
[2]
  (+) Sm.5HTRL fold change: 15.5169 fold change

## CCN(CC)C(=O)N[C@H]1C[C@@H]2c3cccc4[nH]cc(c34)C[C@H]2N(C)C1 [terguride, Terguride, reference compound]
[2]
  type of activity at schistosome 5-HTRs: antagonists
[7]
  IC50: 400 ± 50 nM

## COc1ccc(C2CC(=O)c3c(O)cc(OC4OC(CO)C(O)C(O)C4OC4OC(C)C(O)C(O)C4O)cc3O2)cc1O (centres unmarked) [compound 31048]
[2]; [14]
  Sm.5HTRL antagonism (% of control 5-HT response): 1.138 % of control 5-HT response
[7]
  fold induction at 10 µM: 1.32

## CC(C)C[C@H]1C(=O)N2CCC[C@H]2[C@]2(O)O[C@](NC(=O)[C@@H]3C=C4c5cccc6[nH]cc(c56)C[C@H]4N(C)C3)(C(C)C)C(=O)N12 [α-ergocryptine, reference compound]
[2]
  type of activity at schistosome 5-HTRs: inactive

## CNCCc1c[nH]c2ccc(O)cc12.O=C(O)C(=O)O [ST055634]
[1]; [13]
  (-)Sm.5HTRL fold change: 1.3 fold change
[2]; hek293 cells
  (+) Sm.5HTRL fold change: 165.214 fold change

## Nc1ncnc2c1ncn2C1OC(CO)C(O)C1O (centres unmarked) [compound 7652]
[1]; [13]
  (-)Sm.5HTRL fold change: 7.802 fold change
[2]; agonist hit validation
  (+) Sm.5HTRL fold change: 49.711 fold change

## Cc1ccc2[nH]c(CCN)cc2c1.Cl [ST070930]
[1]; [13]
  (-)Sm.5HTRL fold change: 1.1 fold change
[2]; agonist hit validation
  (+) Sm.5HTRL fold change: 17.0489 fold change

## CN1C[C@H](C(=O)N[C@]2(C)O[C@@]3(O)[C@@H]4CCCN4C(=O)[C@H](Cc4ccccc4)N3C2=O)C[C@@H]2c3cccc4[nH]cc(c34)C[C@H]21 [dihydroergotamine, Dihydroergotamine, reference compound]
[2]
  type of activity at schistosome 5-HTRs: full agonists

## Cl.NCCc1c[nH]c2ccc(Br)cc12 [ST093597]
[1]
  (-)Sm.5HTRL fold change: 1.1795 fold change
[2]; hek293 cells
  (+) Sm.5HTRL fold change: 15.2823 fold change

## O=c1ccc2nc3ccc(O)cc3oc-2c1 [compound 12097]
[2]; [14]
  Sm.5HTRL antagonism (% of control 5-HT response): 0.7238 % of control 5-HT response
[7]
  fold induction at 10 µM: 0.635

## CC(C)NCC(O)c1ccc(O)c(O)c1 (centres unmarked) [ST077771]
[1]; [13]
  (-)Sm.5HTRL fold change: 15.0437 fold change
[2]; agonist hit validation
  (+) Sm.5HTRL fold change: 12.8429 fold change

## CN1CC(C(=O)NC2(C)OC3(O)C4CCCN4C(=O)C(Cc4ccccc4)N3C2=O)C=C2c3cccc4[nH]cc(c34)CC21.O=C(O)C(O)C(O)C(=O)O (centres unmarked) [ST072185]
[1]
  (-)Sm.5HTRL fold change: 1.0 fold change
[2]
  (+) Sm.5HTRL fold change: 29.8904 fold change

## CNC[C@H](O)c1ccc(O)c(O)c1 [ST069368]
[1]; [13]
  (-)Sm.5HTRL fold change: 94.1 fold change
[2]; agonist hit validation
  (+) Sm.5HTRL fold change: 60.6229 fold change

## COC(=O)C1=COC(C)C2CN3CCc4c([nH]c5cc(OC)c(OC)cc45)C3CC12.O=C(O)CC(O)(CC(=O)O)C(=O)O (centres unmarked) [compound 72715]
[1]; [13]
  (-)Sm.5HTRL fold change: 0.9445 fold change
[2]; agonist hit validation
  (+) Sm.5HTRL fold change: 54.6116 fold change

## Nc1ncnc2c1ncn2[C@@H]1O[C@H](COP(=O)(O)OP(=O)(O)O)[C@@H](O)[C@H]1O [ST057097]
[1]; [13]
  (-)Sm.5HTRL fold change: 1.0 fold change
[2]; agonist hit validation
  (+) Sm.5HTRL fold change: 11.9433 fold change

## CC(C)C[C@H]1C(=O)N2CCC[C@H]2[C@]2(O)O[C@](NC(=O)[C@@H]3C=C4c5cccc6[nH]c(Br)c(c56)C[C@H]4N(C)C3)(C(C)C)C(=O)N12 [bromocriptine, Bromocriptine]
[5]; ex vivo
  IC50: 331 ± 271 nM
[5]; preincubation 1 µM, Figure 4B
  5-HT (200 µM) stimulation of worm movement after preincubation with antagonist: 5-HT stimulation was not observed
[2]
  type of activity at schistosome 5-HTRs: antagonists
[7]
  IC50: 1600 ± 400 nM
[12]
  percentage of worms in the liver: 2.0 ± 2.8%

## CCN1C[C@]2(COC)[C@H](O)C[C@H](OC)[C@]34C1[C@H]([C@H](OC)[C@H]23)[C@]1(OC(C)=O)[C@H]2[C@@H](OC(=O)c3ccccc3)[C@](O)(C[C@H]24)[C@@H](OC)[C@@H]1O [compound 56464]
[2]
  Sm.5HTRL agonism (fold change luminescence): 1.997 fold change luminescence
  Sm.5HTRL antagonism (% of control 5-HT response): 1.042 % of control 5-HT response

## Nc1ncnc2c1ncn2[C@@H]1O[C@H](CO)[C@@H](O)[C@H]1O [ST009496]
[1]; [13]
  (-)Sm.5HTRL fold change: 3.9 fold change
[2]; agonist hit validation
  (+) Sm.5HTRL fold change: 24.237 fold change

## COc1cc(C)c2c(c1C=O)Oc1c(c(C)c(O)c3c1C(O)OC3=O)OC2=O (centres unmarked) [compound 87511]
[2]; [14]
  Sm.5HTRL antagonism (% of control 5-HT response): 0.8125 % of control 5-HT response
[7]
  fold induction at 10 µM: 0.635

## CC1=CC(=O)c2c(O)cccc2C1=O [ST069355]
[2]
  (+) Sm.5HTR 5-HT response (% of DMSO): 0.03935 % of DMSO

## Br.Oc1ccc(CC2NCCc3cc(O)c(O)cc32)cc1O (centres unmarked) [ST056944]
[1]
  (-)Sm.5HTRL fold change: 56.3 fold change
[2]; hek293 cells
  (+) Sm.5HTRL fold change: 28.3016 fold change
